Data taken from ChEMBL document CHEMBL4706766, “Novel Bromodomain BRD4 Inhibitors for Treating Cancer” (ACS Med Chem Lett, 2021).

Experiments:
[1] = target: T1, Bromodomain-containing protein 4 (Homo sapiens, UniProt O60885); assay: Binding affinity to His-6 tagged BRD4 BD1 bromodomain (unknown origin) incubated for 10 mins by TR-FRET assay
[2] = target: T1, Bromodomain-containing protein 4; assay: Binding affinity to His-6 tagged BRD4 BD2 bromodomain (unknown origin) incubated for 10 mins by TR-FRET assay

## COC(=O)c1cc2c(cc1CS(C)(=O)=O)-c1cn(C)c(=O)c3[nH]cc(c13)CN2c1ncc(C#CCN)cc1F
[1]
  IC50: 3.3 nM
[2]
  IC50: 3.7 nM
